Values of other authors in US10786520B2, “Aminoglycoside derivatives and uses thereof in treating genetic disorders” (Eloxx Pharmaceuticals Ltd., priority 2015, dated 2020).

System: human fibroblast cells

CN[C@@H]1[C@@H](O)[C@@H](O[C@@H]2[C@@H](O)[C@H](O[C@H]3O[C@H]([C@@H](C)O)[C@@H](O)[C@H](O)[C@H]3N)[C@@H](N)C[C@H]2N)OC[C@]1(C)O [Compound G-418, G-418]
LD50 against human fibroblast cells: 0.04 mg/mL
